Target: T1, Histone-lysine N-methyltransferase SETD7 (Homo sapiens, UniProt Q8WTS6)
T1 sequence (Q8WTS6 whole entry): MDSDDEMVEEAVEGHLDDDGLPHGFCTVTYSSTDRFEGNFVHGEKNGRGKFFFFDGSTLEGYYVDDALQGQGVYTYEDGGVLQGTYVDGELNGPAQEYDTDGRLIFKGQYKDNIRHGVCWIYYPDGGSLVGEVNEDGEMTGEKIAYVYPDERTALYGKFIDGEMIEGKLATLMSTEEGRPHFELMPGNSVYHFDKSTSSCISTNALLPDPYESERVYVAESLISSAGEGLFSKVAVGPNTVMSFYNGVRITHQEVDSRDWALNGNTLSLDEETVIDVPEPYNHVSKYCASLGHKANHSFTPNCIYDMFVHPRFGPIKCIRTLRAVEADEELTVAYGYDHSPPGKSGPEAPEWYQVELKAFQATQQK
Assay: Inhibition of wildtype full length human SETD7 (1 to 366 residues) expressed in Escherichia coli BL21 (DE3) V2R-pRARE using biotinylated H3 (1-25) peptide as substrate incubated for 1 hrs in presence of 3H-SAM by radioactivity based assay

IC50: 1000 nM
SMILES: O=C([C@H](Cc1cccc(C(F)(F)F)c1)NS(=O)(=O)c1cc(F)c2c(c1)CCNC2)N1CCCC1
